Laboratory results taken from US20250221988A1 (Cullgen (Shanghai), Inc., priority 2022, published 2025).
Read-outs that look alike come from different tables or passages of the source.

What was measured:
MV4;11 cells = assay: Cell viability assay (CellTiter-Glo) in MV4;11 cells; assay type: cell-based; conditions: read-out: MV4
Method: (§1) Cell Culture: RS4;11, MV4;11, MOLM-13 and other cells were cultured at 37° C. with 5% CO2 in RPMI 1640 or DMEM Medium supplemented with 10% fetal bovine serum. Cells were authenticated using the short tandem repeat (STR) assays. Mycoplasma test results were negative.
(§2) Cell viability assays: Cells were seeded at a density of 5000 cells per well in 96-well assay plates and treated with test compounds following a 8-point or 12-point 3-fold serial dilution. Three days later, cell viability was determined using the CellTiter-Glo assay kit according to the manufacturer's instructions. The dose-response curves were determined and IC50 values were calculated using the GraphPad Prism software following a nonlinear regression (least squares fit) method.
The IC50 values (nM) of each compound were determined in MV4;11 and MOLM-13 cells with or without gilteritinib (10 nM for MV4;11; and 20 nM for MOML-13) as described in the Materials and Methods subsection and calculated using the GraphPad Prism 5.0 software.

MOLM-13 cells = assay: Cell viability assay (CellTiter-Glo) in MOLM-13 cells; assay type: cell-based
Method: as §1
as §2, with “method. […]” for “method.”

[1] = Homo sapiens, MV4-11, 72 h, MV4;11 cells, compound alone, three days, 11 IC50
[2] = MV4;11 cells, with 10 nM gilteritinib, three days, 11 IC50 (nM) + 10 nM Gil
[3] = Homo sapiens, 72 h, MOLM-13 cells, compound alone, three days, read-out: MOLM-13 IC50
[4] = MOLM-13 cells, with gilteritinib, three days, read-out: MOLM-13 IC50 (nM) + 10 nM Gil
[5] = Homo sapiens, MV4-11, 72 h, 11 IC50 (nM)
[6] = 11 IC50 (nM) + 10 nM Gil, MV4;11 cells, with 10 nM gilteritinib, three days
[7] = Homo sapiens, MOLM-13, 72 h, read-out: MOLM-13 IC50 (nM)
[8] = read-out: MOLM-13 IC50 (nM) + 10 nM Gil, MOLM-13 cells, with gilteritinib, three days

Structure (SMILES) | IC50 (MV4;11 cells; [1]) | IC50 (MV4;11 cells; [2]) | IC50 (MOLM-13 cells; [3]) | IC50 (MOLM-13 cells; [4]) | IC50 (MV4;11 cells; MV4;11 cells, compound alone, three days, 11 IC50) | IC50 (MOLM-13 cells; MOLM-13 cells, compound alone, three days, read-out: MOLM-13 IC50) | IC50 (MV4;11 cells; [5]) | IC50 (MV4;11 cells; [6]) | IC50 (MOLM-13 cells; [7]) | IC50 (MOLM-13 cells; [8])
Cc1cccc(-c2nn([C@H]3C[C@H](CNc4ccc5c(c4)C(=O)N(C4CCC(=O)NC4=O)C5=O)C3)cc2C2CC2)n1 (stereo partly drawn) [GS-713, 5-(((Trans-3-(4-cyclopropyl-3-(6-methylpyridin-2-yl)-1H-pyrazol-1-yl)cyclobutyl)methyl)amino)-2-(2,6-dioxopiperidin-3-yl)isoindoline-1,3-dione] | 10 to 100 nM | 10 to 100 nM | 100 to 1000 nM | 10 to 100 nM |  |  |  |  |  | 
Cc1nc(-c2cn(C3CC(O)(CNc4ccc5c(c4)C(=O)N(C4CCC(=O)NC4=O)C5=O)C3)nc2C2CC2)ccc1F (stereo not drawn) [GS-760, 5-(((trans-3-(3-cyclopropyl-4-(5-fluoro-6-methylpyridin-2-yl)-1H-pyrazol-1-yl)-1-hydroxycyclobutyl)methyl)amino)-2-(2,6-dioxopiperidin-3-yl)isoindoline-1,3-dione] |  |  |  |  | > 1000 nM | > 1000 nM |  |  |  | 
O=C1CCC(N2C(=O)c3ccc(NC[C@H]4C[C@H](n5cc(NC6CCCCC6)c(C6CC6)n5)C4)cc3C2=O)C(=O)N1 (stereo partly drawn) [GS-667, 5-(((Trans-3-(4-(cyclohexylamino)-3-cyclopropyl-1H-pyrazol-1-yl)cyclobutyl)methyl)amino)-2-(2,6-dioxopiperidin-3-yl)isoindoline-1,3-dione] |  |  |  |  |  |  | 10 to 100 nM | < 10 nM | 10 to 100 nM | 10 to 100 nM
CC(C)n1cc2ccnc(-c3cn([C@H]4C[C@H](CNc5ccc6c(c5)C(=O)N(C5CCC(=O)NC5=O)C6=O)C4)nc3C3CC3)c2n1 (stereo partly drawn) [GS-660, 5-(((Trans-3-(3-cyclopropyl-4-(2-isopropyl-2H-pyrazolo[3,4-c]pyridin-7-yl)-1H-pyrazol-1-yl)cyclobutyl)methyl)amino)-2-(2,6-dioxopiperidin-3-yl)isoindoline-1,3-dione] | < 10 nM | < 10 nM | < 10 nM | < 10 nM |  |  |  |  |  | 
O=C1CCC(N2C(=O)c3ccc(NC[C@H]4C[C@H](n5cc(-c6ccc7c(n6)C(O)CC7)c(C6CC6)n5)C4)cc3C2=O)C(=O)N1 (stereo partly drawn) [GS-780, 5-(((Trans-3-(3-cyclopropyl-4-(7-hydroxy-6,7-dihydro-5H-cyclopenta[b]pyridin-2-yl)-1H-pyrazol-1-yl)cyclobutyl)methyl)amino)-2-(2,6-dioxopiperidin-3-yl)isoindoline-1,3-dione] | 10 to 100 nM | < 10 nM | 10 to 100 nM | < 10 nM |  |  |  |  |  | 
Cc1ccc2c(C3CC3)nn([C@H]3C[C@H](CNc4ccc5c(c4)C(=O)N(C4CCC(=O)NC4=O)C5=O)C3)c2n1 (stereo partly drawn) [GS-672, 5-(((Trans-3-(3-cyclopropyl-6-methyl-1H-pyrazolo[3,4-b]pyridin-1-yl)cyclobutyl)methyl)amino)-2-(2,6-dioxopiperidin-3-yl)isoindoline-1,3-dione] | > 1000 nM |  | > 1000 nM | 100 to 1000 nM |  |  |  |  |  | 
O=C1CCC(N2C(=O)c3ccc(NC[C@H]4C[C@H](n5cc(-c6cccc(N7CCCC7)n6)c(C6CC6)n5)C4)cc3C2=O)C(=O)N1 (relative stereo) [GS-748, 5-(((Trans-3-(3-cyclopropyl-4-(6-(pyrrolidin-1-yl)pyridin-2-yl)-1H-pyrazol-1-yl)cyclobutyl)methyl)amino)-2-(2,6-dioxopiperidin-3-yl)isoindoline-1,3-dione] | 10 to 100 nM | < 10 nM | 10 to 100 nM | < 10 nM |  |  |  |  |  | 
N[C@H]1C[C@@H](n2ncc3cnc(-c4cn([C@H]5C[C@H](CNc6ccc7c(c6)C(=O)N(C6CCC(=O)NC6=O)C7=O)C5)nc4C4CC4)cc32)C1 (stereo partly drawn) [GS-778, 5-(((Trans-3-(4-(1-(cis-3-aminocyclobutyl)-1H-pyrazolo[4,3-c]pyridin-6-yl)-3-cyclopropyl-1H-pyrazol-1-yl)cyclobutyl)methyl)amino)-2-(2,6-dioxopiperidin-3-yl)isoindoline-1,3-dione] | 10 to 100 nM | < 10 nM | 10 to 100 nM | < 10 nM |  |  |  |  |  | 
O=C1CCC(N2C(=O)c3ccc(NC[C@H]4C[C@H](n5cc(NC6CCOCC6)c(C6CC6)n5)C4)cc3C2=O)C(=O)N1 (stereo partly drawn) [GS-708, 5-(((Trans-3-(3-cyclopropyl-4-((tetrahydro-2H-pyran-4-yl)amino)-1H-pyrazol-1-yl)cyclobutyl)methyl)amino)-2-(2,6-dioxopiperidin-3-yl)isoindoline-1,3-dione] | > 1000 nM |  | > 1000 nM | 100 to 1000 nM |  |  |  |  |  | 
CC(C)n1cnc2cnc(-c3cn([C@H]4C[C@H](CNc5ccc6c(c5)C(=O)N(C5CCC(=O)NC5=O)C6=O)C4)nc3C3CC3)cc21 (stereo partly drawn) [GS-664, 5-(((Trans-3-(3-cyclopropyl-4-(1-isopropyl-1H-imidazo[4,5-c]pyridin-6-yl)-1H-pyrazol-1-yl)cyclobutyl)methyl)amino)-2-(2,6-dioxopiperidin-3-yl)isoindoline-1,3-dione] |  |  |  |  |  |  | > 1000 nM | 100 to 1000 nM | > 1000 nM | 100 to 1000 nM
O=C1CCC(N2C(=O)c3ccc(NC[C@H]4C[C@H](n5cc(Cc6ccccc6)c(C6CC6)n5)C4)cc3C2=O)C(=O)N1 (stereo partly drawn) [GS-735, 5-(((Trans-3-(4-benzyl-3-cyclopropyl-1H-pyrazol-1-yl)cyclobutyl)methyl)amino)-2-(2,6-dioxopiperidin-3-yl)isoindoline-1,3-dione] |  |  |  |  |  |  | 10 to 100 nM | < 10 nM | 10 to 100 nM | < 10 nM
O=C1CCC(N2C(=O)c3ccc(NCC4CC(n5cc(-c6cnc7c(NCC(O)CO)cccc7n6)c(C6CC6)n5)C4)cc3C2=O)C(=O)N1 (stereo not drawn) [GS-702, 5-(((trans-3-(3-cyclopropyl-4-(5-((2,3-dihydroxypropyl)amino)quinoxalin-2-yl)-1-pyrazol-1-yl)cyclobutyl)methyl)amino)-2-(2,6-dioxopiperidin-3-yl)isoindoline-1,3-dione] | < 10 nM | < 10 nM | < 10 nM | < 10 nM |  |  |  |  |  | 
O=C1CCC(N2Cc3cc(NC[C@H]4C[C@H](n5cc(-c6cnc7ccccc7n6)c(C6CC6)n5)C4)ccc3C2=O)C(=O)N1 (stereo partly drawn) [GS-651, 3-(5-(((trans-3-(3-Cyclopropyl-4-(quinoxalin-2-yl)-1H-pyrazol-1-yl)cyclobutyl)methyl)amino)-1-oxoisoindolin-2-yl)piperidine-2,6-dione] | < 10 nM | < 10 nM | 10 to 100 nM | < 10 nM |  |  |  |  |  | 
Cc1cccc(-c2cn(C3CC4(CC(CNc5ccc6c(c5)C(=O)N(C5CCC(=O)NC5=O)C6=O)C4)C3)nc2C2CC2)n1 (stereo not shown) [GS-775] | 100 to 1000 nM | 100 to 1000 nM | > 1000 nM | 100 to 1000 nM |  |  |  |  |  | 
Nc1ccnc2c1c(C1CC1)nn2[C@H]1C[C@H](CNc2ccc3c(c2)C(=O)N(C2CCC(=O)NC2=O)C3=O)C1 (stereo partly drawn) [GS-762, 5-(((Trans-3-(4-amino-3-cyclopropyl-1H-pyrazolo[3,4-b]pyridin-1-yl)cyclobutyl)methyl)amino)-2-(2,6-dioxopiperidin-3-yl)isoindoline-1,3-dione] | > 1000 nM |  | > 1000 nM |  |  |  |  |  |  | 
O=C1CCC(N2C(=O)c3ccc(NC[C@H]4C[C@H](n5cc(-c6ccc7[nH]ccc7n6)c(C6CC6)n5)C4)cc3C2=O)C(=O)N1 (stereo partly drawn) [GS-720, 5-(((Trans-3-(3-cyclopropyl-4-(1H-pyrrolo[3,2-b]pyridin-5-yl)-1H-pyrazol-1-yl)cyclobutyl)methyl)amino)-2-(2,6-dioxopiperidin-3-yl)isoindoline-1,3-dione] | 10 to 100 nM | 10 to 100 nM | 100 to 1000 nM | 10 to 100 nM |  |  |  |  |  | 
Cn1ncc2ccnc(-c3cn([C@H]4C[C@H](CNc5ccc6c(c5)C(=O)N(C5CCC(=O)NC5=O)C6=O)C4)nc3C3CC3)c21 (stereo partly drawn) [GS-649, 5-(((trans-3-(3-Cyclopropyl-4-(1-methyl-1H-pyrazolo[3,4-c]pyridin-7-yl)-1H-pyrazol-1-yl)cyclobutyl)methyl)amino)-2-(2,6-dioxopiperidin-3-yl)isoindoline-1,3-dione] | < 10 nM | < 10 nM | 10 to 100 nM | < 10 nM |  |  |  |  |  | 
O=C1CCC(N2C(=O)c3ccc(NC[C@H]4C[C@H](n5cc(-c6ccccc6C6CCNCC6)c(C6CC6)n5)C4)cc3C2=O)C(=O)N1 (stereo partly drawn) [GS-654, 5-(((Trans-3-(3-cyclopropyl-4-(2-(piperidin-4-yl)phenyl)-1H-pyrazol-1-yl)cyclobutyl)methyl)amino)-2-(2,6-dioxopiperidin-3-yl)isoindoline-1,3-dione] | > 1000 nM | 10 to 100 nM | 100 to 1000 nM | 100 to 1000 nM |  |  |  |  |  | 
O=C1CCC(N2C(=O)c3ccc(NCCCn4cc(-c5cnc6ccccc6n5)c(C5CC5)n4)cc3C2=O)C(=O)N1 (stereo not shown) [GS-642, 5-((3-(3-Cyclopropyl-4-(quinoxalin-2-yl)-1H-pyrazol-1-yl)propyl)amino)-2-(2,6-dioxopiperidin-3-yl)isoindoline-1,3-dione] | 10 to 100 nM | < 10 nM | 10 to 100 nM | < 10 nM |  |  |  |  |  | 
